In PubChem BioAssay AID248 (DTP/NCI, 2004):
“And” between values parts separate entries of the source, which are not always exact repeats. Equal values may be shown once. Inconclusive results and toxic doses are left out. Rule as the data show it: active = T/C of 150% or more; inactive = T/C below 125%.

System: L1210 leukemia ip in BDF1 mice, survival T/C
Assay: NCI In Vivo Anticancer Drug Screen. Data for tumor model L1210 Leukemia (intraperitoneal) in B6D2F1 (BDF1) mice
Settings: endpoint: mean survival time, higher = longer survival
In short: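 Read-out is survival time, reported as the treated-group measurement over the vehicle-control measurement.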

[1] = dose: 100.0 mg/kg/injection, schedule: Q04DX003 (ip), vehicle: saline
[2] = dose: 200.0 mg/kg/injection, schedule: Q04DX003 (ip), vehicle: saline
[3] = dose: 100.0 mg/kg/injection, schedule: Q01DX009 (ip), vehicle: Klucel (hydroxypropylcellulose) (HPC)
[4] = dose: 200.0 mg/kg/injection, schedule: Q01DX009 (ip), vehicle: Klucel (hydroxypropylcellulose) (HPC)
[5] = dose: 400.0 mg/kg/injection, schedule: Q01DX009 (ip), vehicle: Klucel (hydroxypropylcellulose) (HPC)
[6] = dose: 100.0 mg/kg/injection, schedule: Q04DX003 (ip), vehicle: saline with Tween-80
[7] = dose: 200.0 mg/kg/injection, schedule: Q04DX003 (ip), vehicle: saline with Tween-80
[8] = dose: 400.0 mg/kg/injection, schedule: Q04DX003 (ip), vehicle: saline with Tween-80
[9] = dose: 100.0 mg/kg/injection, schedule: Q01DX001 (ip), vehicle: saline
[10] = dose: 200.0 mg/kg/injection, schedule: Q01DX001 (ip), vehicle: saline
[11] = dose: 400.0 mg/kg/injection, schedule: Q01DX001 (ip), vehicle: saline
[12] = dose: 100.0 mg/kg/injection, schedule: Q04DX002 (ip), vehicle: Klucel (hydroxypropylcellulose) (HPC)
[13] = dose: 100.0 mg/kg/injection, schedule: Q04DX003 (ip), vehicle: Klucel (hydroxypropylcellulose) (HPC)
[14] = dose: 200.0 mg/kg/injection, schedule: Q04DX003 (ip), vehicle: Klucel (hydroxypropylcellulose) (HPC)
[15] = dose: 400.0 mg/kg/injection, schedule: Q04DX003 (ip), vehicle: Klucel (hydroxypropylcellulose) (HPC)

Measured: T/C

COc1cc2cc(-c3cc(OC)c(OC)c(OC)c3)c3c(c2cc1OC)CNC3
inactive: dose: 12.5 mg/kg/injection, schedule: Q01DX009 (ip), vehicle: water 103 % of control | dose: 25.0 mg/kg/injection, schedule: Q01DX009 (ip), vehicle: water 93 % of control | dose: 50.0 mg/kg/injection, schedule: Q01DX009 (ip), vehicle: water 97 % of control | dose: 100.0 mg/kg/injection, schedule: Q01DX009 (ip), vehicle: water 102 % of control and 86 % of control | dose: 100.0 mg/kg/injection, schedule: Q04DX003 (ip), vehicle: water 102 % of control | dose: 200.0 mg/kg/injection, schedule: Q04DX003 (ip), vehicle: water 98 % of control | dose: 400.0 mg/kg/injection, schedule: Q04DX003 (ip), vehicle: water 109 % of control

Nc1nc(N)c(CCCOc2ccccc2)c(N)n1
inactive: dose: 100.0 mg/kg/injection, schedule: Q04DX002 (ip), vehicle: saline 105 % of control | dose: 200.0 mg/kg/injection, schedule: Q04DX002 (ip), vehicle: saline 105 % of control

Cc1ccc(C(=O)CCN2CCOCC2)cc1C
inactive: [1] 93 % of control | [2] 91 % of control

COc1cc([N+](=O)[O-])ccc1NC(=O)Oc1ccc(-c2ccccc2)cc1
inactive: [3] 95 % of control | [4] 95 % of control | [5] 98 % of control

CC(C)OCCCNC(=O)NS(=O)(=O)c1ccc(N)cc1
inactive: [6] 101 % of control | [7] 100 % of control | [8] 92 % of control

O=C1CC(=O)N(c2ccccc2)N1
inactive: [9] 96 % of control | [10] 98 % of control | [11] 98 % of control

Cc1ncc(C(=O)O)[nH]1
inactive: [9] 91 % of control | [10] 89 % of control | [11] 91 % of control

O=C(CCCCCCC(=O)C[n+]1ccccc1Br)C[n+]1ccccc1Br
inactive: dose: 1.4 mg/kg/injection, schedule: Q04DX003 (ip), vehicle: saline 105 % of control | dose: 2.8 mg/kg/injection, schedule: Q04DX003 (ip), vehicle: saline 100 % of control | dose: 5.6 mg/kg/injection, schedule: Q04DX003 (ip), vehicle: saline 97 % of control

CC(C)c1ccc(C(=O)CCCCl)cc1
inactive: [6] 97 % of control | [7] 102 % of control | [8] 92 % of control

N/N=C1\c2ccccc2-c2ccc([N+](=O)[O-])cc21
inactive: dose: 100.0 mg/kg/injection, schedule: Q01DX001 (ip), vehicle: carboxymethylcellulose (CMC) 95 % of control | dose: 200.0 mg/kg/injection, schedule: Q01DX001 (ip), vehicle: carboxymethylcellulose (CMC) 93 % of control | dose: 400.0 mg/kg/injection, schedule: Q01DX001 (ip), vehicle: carboxymethylcellulose (CMC) 95 % of control

C[N+](C)(C)C1CCCCCCC(=O)NC1 (stereo not given)
inactive: dose: 75.0 mg/kg/injection, schedule: Q01DX009 (ip), vehicle: saline 101 % of control | dose: 150.0 mg/kg/injection, schedule: Q01DX009 (ip), vehicle: saline 92 % of control | dose: 300.0 mg/kg/injection, schedule: Q01DX009 (ip), vehicle: saline 109 % of control

COC(=O)C1C2CC3c4[nH]c5cc(OC)ccc5c4CCN3CC2CC(O)C1OC (stereo not given)
inactive: dose: 50.0 mg/kg/injection, schedule: Q04DX002 (ip), vehicle: Klucel (hydroxypropylcellulose) (HPC) 96 % of control | [12] 90 % of control

CCCCCCCCCCCCSCCCCSCCCCCCCCCCCC
inactive: dose: 100.0 mg/kg/injection, schedule: Q01DX001 (ip), vehicle: Klucel (hydroxypropylcellulose) (HPC) 93 % of control | dose: 200.0 mg/kg/injection, schedule: Q01DX001 (ip), vehicle: Klucel (hydroxypropylcellulose) (HPC) 89 % of control | dose: 400.0 mg/kg/injection, schedule: Q01DX001 (ip), vehicle: Klucel (hydroxypropylcellulose) (HPC) 91 % of control

O=C1Nc2ccc(Br)cc2C1=Nc1cccnc1
inactive: [12] 116 % of control | dose: 200.0 mg/kg/injection, schedule: Q04DX002 (ip), vehicle: Klucel (hydroxypropylcellulose) (HPC) 95 % of control | dose: 400.0 mg/kg/injection, schedule: Q04DX002 (ip), vehicle: Klucel (hydroxypropylcellulose) (HPC) 116 % of control

C=CCCCCCCCCC(=O)NCCN1CCOCC1
inactive: [6] 101 % of control

Cc1ccc(C(O)C(=O)O)c(C)c1 (stereo not given)
inactive: dose: 100.0 mg/kg/injection, schedule: Q04DX002 (ip), vehicle: saline with Tween-80 101 % of control | dose: 200.0 mg/kg/injection, schedule: Q04DX002 (ip), vehicle: saline with Tween-80 89 % of control

Clc1ccc(OCc2sc3ccc(Br)cc3c2CN2CCOCC2)cc1
inactive: dose: 75.0 mg/kg/injection, schedule: Q01DX009 (ip), vehicle: Klucel (hydroxypropylcellulose) (HPC) 100 % of control | [13] 94 % of control | dose: 150.0 mg/kg/injection, schedule: Q01DX009 (ip), vehicle: Klucel (hydroxypropylcellulose) (HPC) 105 % of control | [14] 96 % of control | dose: 300.0 mg/kg/injection, schedule: Q01DX009 (ip), vehicle: Klucel (hydroxypropylcellulose) (HPC) 95 % of control | [15] 89 % of control

CCOc1ccccc1NC(=O)Nc1ccccc1OC
inactive: [3] 103 % of control | [13] 103 % of control | [4] 98 % of control | [14] 96 % of control | [5] 98 % of control | [15] 100 % of control

CCC(=O)OCC1OC(n2cc(F)c(=O)[nH]c2=O)CC1OC(=O)CC (stereo not given)
inactive: dose: 50.0 mg/kg/injection, schedule: Q01DX001 (ip), vehicle: saline 101 % of control | dose: 89.0 mg/kg/injection, schedule: Q01DX015 (ip), vehicle: saline 117 % of control | [9] 101 % of control | [1] 104 % of control | [10] 101 % of control | [2] 114 % of control | dose: 264.0 mg/kg/injection, schedule: Q04DX003 (ip), vehicle: saline 111 % of control and 112 % of control | dose: 300.0 mg/kg/injection, schedule: Q01DX015 (ip), vehicle: saline 115 % of control | [11] 113 % of control | dose: 400.0 mg/kg/injection, schedule: Q04DX003 (ip), vehicle: saline 108 % of control

CC(C)(C)Sc1ccncc1
inactive: dose: 100.0 mg/kg/injection, schedule: Q01DX009 (ip), vehicle: saline with Tween-80 98 % of control | dose: 200.0 mg/kg/injection, schedule: Q01DX009 (ip), vehicle: saline with Tween-80 88 % of control

O=[N+]([O-])c1ccc(/C=N/c2nccs2)o1
inactive: dose: 1.56 mg/kg/injection, schedule: Q01DX009 (ip), vehicle: saline 88 % of control | dose: 3.12 mg/kg/injection, schedule: Q01DX009 (ip), vehicle: saline 90 % of control | dose: 6.25 mg/kg/injection, schedule: Q01DX009 (ip), vehicle: saline 93 % of control | dose: 12.5 mg/kg/injection, schedule: Q01DX009 (ip), vehicle: saline 103 % of control | dose: 25.0 mg/kg/injection, schedule: Q01DX009 (ip), vehicle: saline 93 % of control | dose: 25.0 mg/kg/injection, schedule: Q04DX003 (ip), vehicle: saline 97 % of control | dose: 50.0 mg/kg/injection, schedule: Q04DX003 (ip), vehicle: saline 116 % of control | [1] 88 % of control and 91 % of control

CC(C)(C)NC(=O)Oc1cccnc1
inactive: [3] 93 % of control | [4] 102 % of control
